From patent US9180116B2, “Difluorolactam compounds as EP4 receptor-selective agonists for use in the treatment of EP4-mediated diseases and conditions” (Cayman Chemical Company, Inc., priority 2012, dated 2015)
Read-outs that look alike come from different tables or passages of the source.

Key:
[1] = target: T1, rat EP4 receptor (Rattus norvegicus (Rat), UniProt P43114); assay: cAMP level assay for EP4 agonist (STEP plate format); assay type: cell-based; details: read-out: STEP cell functional assay EC50 cAMP/EP4
T1 sequence (P43114 whole entry): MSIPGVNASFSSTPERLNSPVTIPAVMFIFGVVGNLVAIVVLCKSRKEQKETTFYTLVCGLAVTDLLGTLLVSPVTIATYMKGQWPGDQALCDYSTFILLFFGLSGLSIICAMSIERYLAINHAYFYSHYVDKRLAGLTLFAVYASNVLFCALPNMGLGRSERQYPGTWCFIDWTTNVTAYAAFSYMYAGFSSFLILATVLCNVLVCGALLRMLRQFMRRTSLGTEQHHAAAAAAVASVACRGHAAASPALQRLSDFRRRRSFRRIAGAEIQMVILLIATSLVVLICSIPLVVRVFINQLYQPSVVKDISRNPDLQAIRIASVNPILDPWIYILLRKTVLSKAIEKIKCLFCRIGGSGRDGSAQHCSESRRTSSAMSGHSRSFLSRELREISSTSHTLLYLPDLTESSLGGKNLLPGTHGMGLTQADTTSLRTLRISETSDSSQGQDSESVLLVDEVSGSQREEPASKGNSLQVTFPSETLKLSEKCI
Description: (§1) Functional Cellular Assays (STEP Plate Format)
(§2) Procedure of cAMP Assay for EP2/EP4 Agonist
(§3) 3. […] In addition each concentration had triplicates.
(§4) 6. Aspirate the supernatant.

[2] = target: T2, rat EP2 receptor (Rattus norvegicus (Rat), UniProt Q62928); assay: cAMP level assay for EP2 agonist (STEP plate format); assay type: cell-based; details: cAMP readout, read-out: STEP cell functional assay EC50 cAMP/EP2
T2 sequence (Q62928 whole entry): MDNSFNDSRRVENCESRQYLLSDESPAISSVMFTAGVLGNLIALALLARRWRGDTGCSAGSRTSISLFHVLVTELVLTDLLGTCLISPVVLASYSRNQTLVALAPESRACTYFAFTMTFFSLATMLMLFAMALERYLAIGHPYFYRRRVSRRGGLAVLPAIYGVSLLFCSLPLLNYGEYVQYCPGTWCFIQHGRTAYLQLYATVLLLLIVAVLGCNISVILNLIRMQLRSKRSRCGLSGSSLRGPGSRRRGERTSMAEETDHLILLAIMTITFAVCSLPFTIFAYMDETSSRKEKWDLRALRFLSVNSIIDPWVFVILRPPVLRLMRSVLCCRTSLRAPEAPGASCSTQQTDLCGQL
Description: as §1, §2, §3, §4

[3] = target: Human Prostanoid EP4 Receptor (Homo sapiens (Human), UniProt P35408); assay: Radioligand binding assay, agonist site of human prostanoid EP4 receptor in transfected HEK-293 cells; details: for IC50: read-out: hEP4 receptor binding IC50; for Ki: read-out: hEP4 receptor binding Ki
Human Prostanoid EP4 Receptor, sequence (P35408 whole entry): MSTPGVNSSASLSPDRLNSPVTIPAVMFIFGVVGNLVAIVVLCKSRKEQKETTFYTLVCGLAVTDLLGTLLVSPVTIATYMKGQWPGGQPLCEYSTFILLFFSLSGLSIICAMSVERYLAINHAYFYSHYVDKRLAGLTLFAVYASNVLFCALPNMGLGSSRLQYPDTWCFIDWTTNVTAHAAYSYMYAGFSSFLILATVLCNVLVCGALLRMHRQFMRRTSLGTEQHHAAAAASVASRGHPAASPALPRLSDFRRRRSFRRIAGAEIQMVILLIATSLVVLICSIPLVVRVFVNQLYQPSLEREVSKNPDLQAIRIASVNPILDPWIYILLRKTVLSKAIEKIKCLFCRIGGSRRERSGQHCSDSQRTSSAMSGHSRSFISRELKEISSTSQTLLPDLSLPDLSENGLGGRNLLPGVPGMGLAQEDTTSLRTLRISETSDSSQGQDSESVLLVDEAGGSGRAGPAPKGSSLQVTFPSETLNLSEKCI
Experimental: Radioligand Binding Assay for the Evaluation of the Affinity of Compounds for the Agonist Site of the Human Prostanoid EP4 Receptor in Transfected HEK-293 Cells
Following incubation, the samples are filtered rapidly under vacuum through glass fiber filters (GF/B, Packard) presoaked with 0.3% PEI and rinsed several times with ice-cold 50 mM Tris-HCl using a 96-sample cell harvester (Unifilter, Packard). The filters are dried then counted for radioactivity in a scintillation counter (Topcount, Packard) using a scintillation cocktail (Microscint 0, Packard).

[4] = target: T1, rat EP4 receptor; assay: SEAP activity assay for EP4 agonist (STEP plate format); assay type: cell-based; details: read-out: STEP cell functional assay EC50 SEAP/EP4
Description: as §1
(§5) Procedure of SEAP Activity Assay for EP2/EP4 Agonist
as §3
(§6) 4. […] Cover the plate with the lid.

[5] = target: T2, rat EP2 receptor; assay: SEAP activity assay for EP2 agonist (STEP plate format); assay type: cell-based; details: read-out: STEP cell functional assay EC50 SEAP/EP2
Description: as §1, §5, §3, §6

[6] = test system: calvarial bone defect; assay: Rat calvarial defect model (bone formation); assay type: in vivo, female Sprague Dawley rats; details: rat cranial defect 2.6 mm, drug in calcium phosphate cement/demineralized bone matrix, eight weeks
[7] = [3H]PGE2 0.5 nM, HEK-293 cell membrane homogenates
[8] = SEAP luminescence, 6-8 hours of stimulation

Row | EC50 ([1]; cAMP readout, EP4) | EC50 [2] | IC50 [3, 7] | Ki [3, 7] | EC50 ([1]; cAMP by ELISA, 30 minutes, 500 μM IBMX) | EC50 [4, 8] | EC50 [5, 8] | IC50 ([3]; human EP4 receptor binding) | Ki ([3]; human EP4 receptor binding) | EC50 ([4]; SEAP readout, EP4) | EC50 ([5]; SEAP readout, EP2) | SMILES | Healing of a calvarial bone defect [6]
1 | 0.0029 ± 0.0008 nM | 1310 nM | – | – | – | – | – | – | – | – | – | C[C@@H](CCCc1ccccc1)[C@H](O)CC[C@H]1CC(F)(F)C(=O)N1CCCc1ccc(C(=O)O)s1 [Example 28C-H2, 5-(3-((S)-3,3-difluoro-5-((3R,4S)-3-hydroxy-4-methyl-7-phenylheptyl)-2-oxopyrrolidin-1-yl)propyl)thiophene-2-carboxylic acid] | –
2 | – | – | 1.3 nM | 0.49 nM | 0.24 ± 0.08 nM | 0.038 ± 0.037 nM | > 1000 nM | – | – | – | – | CCC#CC[C@H](C)[C@H](O)/C=C/[C@H]1CC(F)(F)C(=O)N1CCCCCCC(=O)O [Example 2C, 7-((R)-3,3-difluoro-5-((3S,4S,E)-3-hydroxy-4-methylnon-1-en-6-yn-1-yl)-2-oxopyrrolidin-1-yl)heptanoic acid] | Accelerated Healing
3 | 0.079 nM | – | – | – | – | – | – | 0.28 nM | 0.1 nM | 0.063 nM | 326 nM | CCCCC[C@H](O)/C=C/[C@H]1CC(F)(F)C(=O)N1CCCc1ccc(C(=O)O)s1 [Example 33C, 5-(3-((R)-3,3-difluoro-5-((S,E)-3-hydroxyoct-1-en-1-yl)-2-oxopyrrolidin-1-yl)propyl)thiophene-2-carboxylic acid] | –
